In PubChem BioAssay (NCI):
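96-well plates; 48 h exposure; 5 concentrations. Endpoints by linear interpolation between flanking doses. Not reached: highest tested concentration assigned. The concentration for 50% growth inhibition is given as GI50. TGI: total growth inhibition.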

These molecules were tested on SK-MEL-5 melanoma (assay: NCI-60 cell line screen, 48 h).

Q: Cn1c(=O)c(-c2ccccc2)c(N=[N+]=[N-])c2ccccc21 was tested. Which TGI did it give?
A: The TGI was greater than 100 µM.

Q: How did the GI50 turn out when CCC(/C=C/C1OC(=O)C=CC1C)=C\C(C)C/C=C/C(C)=C/C(C)C(=O)C(C)C(O)C(C)C/C(C)=C/C(=O)O (configuration not stated) was run?
A: The GI50 was 0.408 µM.

Q: CC1(C)N=C(N)N=C(N)N1c1ccc(CCc2ccccc2)cc1 was tested. Which TGI did it give?
A: Its TGI is 9.63 µM.

Q: How did the TGI turn out when CN(C)CCCN1CCC2(CCC(C(C)(C)C)CC2)CC1 was run?
A: Its TGI is 3.02 µM.

Q: With Cc1[nH]nc(C(F)(F)F)c1N=NN1CCOCC1 as the molecule, how does the TGI read?
A: The TGI was 12.8 µM.

Q: S=C(S)NCNC(=S)S.[Zn+2] was tested. Which TGI did it give?
A: The TGI was greater than 100 µM.

Q: CC1(CCOCc2ccccc2)NC(=O)NC1=O (configuration not stated) was tested. Which TGI did it give?
A: Its TGI is greater than 100 µM.

Q: Which results are given for O=C(Cn1c[n+](CC(=O)c2ccc(-c3ccccc3)cc2)c2ccccc21)Nc1cccc2cccnc12?
A: GI50: 1.73 µM; TGI: 3.11 µM

Q: With CC(OC(C)(C)C)[C@H](NC(=O)OCC(Cl)(Cl)Cl)C(=O)O (some centres not stated) as the molecule, how does the TGI read?
A: The TGI was greater than 100 µM.

Q: How did the TGI turn out when O=C(O)CCC(NC(=O)c1ccc(Nc2nc3cc(C(F)(F)F)ccc3nc2-c2ccccc2)cc1)C(=O)O (configuration not stated) was run?
A: Its TGI is greater than 100 µM.

Q: c1ccc(CCNc2ccccn2)nc1 was tested. Which TGI did it give?
A: The TGI was greater than 100 µM.

Q: With NCc1ccccc1-c1c2nc(c(-c3ccccc3CN)c3ccc([nH]3)c(-c3ccccc3CN)c3nc(c(-c4ccccc4CN)c4ccc1[nH]4)C=C3)C=C2 as the molecule, how does the TGI read?
A: The TGI was 63.7 µM.

What follows are molecules tested on OVCAR-3 ovarian (assay: NCI-60 cell line screen, 48 h).

Q: For Cn1c(=O)c(-c2ccccc2)c(N=[N+]=[N-])c2ccccc21, which TGI is on record?
A: The TGI was greater than 100 µM.

Q: With CCC(/C=C/C1OC(=O)C=CC1C)=C\C(C)C/C=C/C(C)=C/C(C)C(=O)C(C)C(O)C(C)C/C(C)=C/C(=O)O (configuration not stated) as the molecule, how does the GI50 read?
A: Its GI50 is 0.0145 nM.

Q: CC1(C)N=C(N)N=C(N)N1c1ccc(CCc2ccccc2)cc1 was tested. Which TGI did it give?
A: The TGI was greater than 80.6 µM.

Q: Which TGI does the source give for CN(C)CCCN1CCC2(CCC(C(C)(C)C)CC2)CC1 here?
A: The TGI was 10.9 µM.

Q: Which TGI does the source give for Cc1[nH]nc(C(F)(F)F)c1N=NN1CCOCC1 here?
A: Its TGI is 23 µM.

Q: What does the source list for C=C(C)[C@@H]1CC[C@]2(C(=O)NC3CCCCC3)CC[C@]3(C)[C@H](CC[C@@H]4[C@@]5(C)CCCNC(C)(C)[C@@H]5CC[C@]43C)[C@@H]12?
A: GI50: 1870 nM; TGI: 3.57 µM

Q: With S=C(S)NCNC(=S)S.[Zn+2] as the molecule, how does the TGI read?
A: Its TGI is greater than 100 µM.

Q: With CC1(CCOCc2ccccc2)NC(=O)NC1=O (configuration not stated) as the molecule, how does the TGI read?
A: The TGI was greater than 100 µM.

Q: For CC(OC(C)(C)C)[C@H](NC(=O)OCC(Cl)(Cl)Cl)C(=O)O (some centres not stated), which TGI is on record?
A: Its TGI is greater than 100 µM.

Q: For O=C(O)CCC(NC(=O)c1ccc(Nc2nc3cc(C(F)(F)F)ccc3nc2-c2ccccc2)cc1)C(=O)O (configuration not stated), which TGI is on record?
A: Its TGI is greater than 100 µM.

Q: For c1ccc(CCNc2ccccn2)nc1, which TGI is on record?
A: Its TGI is greater than 100 µM.

Q: NCc1ccccc1-c1c2nc(c(-c3ccccc3CN)c3ccc([nH]3)c(-c3ccccc3CN)c3nc(c(-c4ccccc4CN)c4ccc1[nH]4)C=C3)C=C2 was tested. Which TGI did it give?
A: Its TGI is 39.2 µM.

What follows are molecules tested on SK-MEL-28 melanoma (assay: NCI-60 cell line screen, 48 h).

Q: Cn1c(=O)c(-c2ccccc2)c(N=[N+]=[N-])c2ccccc21 was tested. Which TGI did it give?
A: Its TGI is greater than 100 µM.

Q: CCC(/C=C/C1OC(=O)C=CC1C)=C\C(C)C/C=C/C(C)=C/C(C)C(=O)C(C)C(O)C(C)C/C(C)=C/C(=O)O (configuration not stated) was tested. Which GI50 did it give?
A: Its GI50 is 0.00451 nM.

Q: CC1(C)N=C(N)N=C(N)N1c1ccc(CCc2ccccc2)cc1 was tested. Which TGI did it give?
A: Its TGI is greater than 86.7 µM.

Q: Which TGI does the source give for CN(C)CCCN1CCC2(CCC(C(C)(C)C)CC2)CC1 here?
A: The TGI was 3.36 µM.

Q: How did the TGI turn out when Cc1[nH]nc(C(F)(F)F)c1N=NN1CCOCC1 was run?
A: The TGI was 32.7 µM.

Q: With S=C(S)NCNC(=S)S.[Zn+2] as the molecule, how does the TGI read?
A: The TGI was greater than 100 µM.

Q: With CC1(CCOCc2ccccc2)NC(=O)NC1=O (configuration not stated) as the molecule, how does the TGI read?
A: The TGI was greater than 100 µM.

Q: For O=C(Cn1c[n+](CC(=O)c2ccc(-c3ccccc3)cc2)c2ccccc21)Nc1cccc2cccnc12, which GI50 is on record?
A: Its GI50 is 1510 nM.

Q: What about the TGI of the same molecule?
A: Its TGI is 2.83 µM.

Q: How did the TGI turn out when CC(OC(C)(C)C)[C@H](NC(=O)OCC(Cl)(Cl)Cl)C(=O)O (some centres not stated) was run?
A: Its TGI is greater than 100 µM.

Q: For O=C(O)CCC(NC(=O)c1ccc(Nc2nc3cc(C(F)(F)F)ccc3nc2-c2ccccc2)cc1)C(=O)O (configuration not stated), which TGI is on record?
A: Its TGI is greater than 100 µM.

Q: Which TGI does the source give for c1ccc(CCNc2ccccn2)nc1 here?
A: The TGI was greater than 100 µM.

Q: How did the TGI turn out when NCc1ccccc1-c1c2nc(c(-c3ccccc3CN)c3ccc([nH]3)c(-c3ccccc3CN)c3nc(c(-c4ccccc4CN)c4ccc1[nH]4)C=C3)C=C2 was run?
A: The TGI was 43.4 µM.

The molecules below were run on OVCAR-4 ovarian (assay: NCI-60 cell line screen, 48 h).

Q: How did the TGI turn out when Cn1c(=O)c(-c2ccccc2)c(N=[N+]=[N-])c2ccccc21 was run?
A: Its TGI is greater than 100 µM.

Q: Which GI50 does the source give for CCC(/C=C/C1OC(=O)C=CC1C)=C\C(C)C/C=C/C(C)=C/C(C)C(=O)C(C)C(O)C(C)C/C(C)=C/C(=O)O (configuration not stated) here?
A: The GI50 was less than 1 pM.

Q: For CC1(C)N=C(N)N=C(N)N1c1ccc(CCc2ccccc2)cc1, which TGI is on record?
A: Its TGI is greater than 100 µM.

Q: With CN(C)CCCN1CCC2(CCC(C(C)(C)C)CC2)CC1 as the molecule, how does the TGI read?
A: The TGI was 17.3 µM.

Q: With Cc1[nH]nc(C(F)(F)F)c1N=NN1CCOCC1 as the molecule, how does the TGI read?
A: Its TGI is 15.1 µM.

Q: S=C(S)NCNC(=S)S.[Zn+2] was tested. Which TGI did it give?
A: The TGI was greater than 100 µM.

Q: CC1(CCOCc2ccccc2)NC(=O)NC1=O (configuration not stated) was tested. Which TGI did it give?
A: Its TGI is greater than 100 µM.

Q: With CC(OC(C)(C)C)[C@H](NC(=O)OCC(Cl)(Cl)Cl)C(=O)O (some centres not stated) as the molecule, how does the TGI read?
A: The TGI was greater than 100 µM.

Q: O=C(O)CCC(NC(=O)c1ccc(Nc2nc3cc(C(F)(F)F)ccc3nc2-c2ccccc2)cc1)C(=O)O (configuration not stated) was tested. Which TGI did it give?
A: The TGI was greater than 100 µM.

Q: c1ccc(CCNc2ccccn2)nc1 was tested. Which TGI did it give?
A: The TGI was greater than 100 µM.

Q: NCc1ccccc1-c1c2nc(c(-c3ccccc3CN)c3ccc([nH]3)c(-c3ccccc3CN)c3nc(c(-c4ccccc4CN)c4ccc1[nH]4)C=C3)C=C2 was tested. Which TGI did it give?
A: The TGI was 51.2 µM.

What follows are molecules tested on SK-OV-3 ovarian (assay: NCI-60 cell line screen, 48 h).

Q: How did the TGI turn out when Cn1c(=O)c(-c2ccccc2)c(N=[N+]=[N-])c2ccccc21 was run?
A: The TGI was greater than 100 µM.

Q: Which GI50 does the source give for CCC(/C=C/C1OC(=O)C=CC1C)=C\C(C)C/C=C/C(C)=C/C(C)C(=O)C(C)C(O)C(C)C/C(C)=C/C(=O)O (configuration not stated) here?
A: Its GI50 is 0.0954 nM.

Q: What about the TGI of the same molecule?
A: Its TGI is 14.3 µM.

Q: CC1(C)N=C(N)N=C(N)N1c1ccc(CCc2ccccc2)cc1 was tested. Which TGI did it give?
A: Its TGI is greater than 100 µM.

Q: With CN(C)CCCN1CCC2(CCC(C(C)(C)C)CC2)CC1 as the molecule, how does the TGI read?
A: Its TGI is 22.8 µM.

Q: Which TGI does the source give for Cc1[nH]nc(C(F)(F)F)c1N=NN1CCOCC1 here?
A: The TGI was 31.7 µM.

Q: Which results are given for C=C(C)[C@@H]1CC[C@]2(C(=O)NC3CCCCC3)CC[C@]3(C)[C@H](CC[C@@H]4[C@@]5(C)CCCNC(C)(C)[C@@H]5CC[C@]43C)[C@@H]12?
A: GI50: 1770 nM; TGI: 3.26 µM

Q: Which TGI does the source give for S=C(S)NCNC(=S)S.[Zn+2] here?
A: The TGI was greater than 100 µM.

Q: CC(OC(C)(C)C)[C@H](NC(=O)OCC(Cl)(Cl)Cl)C(=O)O (some centres not stated) was tested. Which TGI did it give?
A: Its TGI is greater than 100 µM.

Q: For O=C(O)CCC(NC(=O)c1ccc(Nc2nc3cc(C(F)(F)F)ccc3nc2-c2ccccc2)cc1)C(=O)O (configuration not stated), which TGI is on record?
A: The TGI was greater than 100 µM.

Q: With c1ccc(CCNc2ccccn2)nc1 as the molecule, how does the TGI read?
A: Its TGI is greater than 100 µM.
